The values that follow come from US11111233B2, “Amino pyrimidine compound for inhibiting protein tyrosine kinase activity” (Shenzhen TargetRx, Inc., priority 2016, dated 2021).

Read-outs that look alike come from different tables or passages of the source. Bounds are passed on as bounds.

One test addresses WT EGFR (Homo sapiens (Human), UniProt P00533). Description: Kinase inhibition assay (HTRF), WT EGFR. Particulars: HTRF Kinase TK kit, 10 min pre-incubation, 20 min reaction. The format is biochemical. (TR-FRET usually uses a lanthanide donor and a delayed reading to cut background.)
The target in another test is EGFR [L858R/T790M] (Homo sapiens (Human), UniProt P00533, L858R/T790M). The test is described as follows: Kinase inhibition assay (HTRF), EGFR [L858R/T790M]. The test is classed as biochemical. Particulars: HTRF Kinase TK kit, 10 min pre-incubation, 20 min reaction; read-out: EGFR(L858R/T790M) IC50.
The test system of test [1] is Skin cancer cell line A431 (WT). The test is described as follows: Cytotoxicity test (MTS cell viability), A431. The format is cell-based. The conditions noted are these: Homo sapiens, A-431; MTS, 72 hours; read-out: A431 (WT) IC50.
Test [2] has as its system lung cancer cells HCC827 (Del19). The test is described as follows: Cytotoxicity test (MTS cell viability), HCC827. The format is cell-based. The conditions noted are these: Homo sapiens.
The mark [3] stands for this setting: HCC827, MTS, 72 hours, read-out: HCC827 (Del19) IC50.
The mark [4] stands for this setting: HCC827, 72 h, read-out: HCC827 (Del19) IC50(nM).

WT EGFR, sequence (P00533 25-1210): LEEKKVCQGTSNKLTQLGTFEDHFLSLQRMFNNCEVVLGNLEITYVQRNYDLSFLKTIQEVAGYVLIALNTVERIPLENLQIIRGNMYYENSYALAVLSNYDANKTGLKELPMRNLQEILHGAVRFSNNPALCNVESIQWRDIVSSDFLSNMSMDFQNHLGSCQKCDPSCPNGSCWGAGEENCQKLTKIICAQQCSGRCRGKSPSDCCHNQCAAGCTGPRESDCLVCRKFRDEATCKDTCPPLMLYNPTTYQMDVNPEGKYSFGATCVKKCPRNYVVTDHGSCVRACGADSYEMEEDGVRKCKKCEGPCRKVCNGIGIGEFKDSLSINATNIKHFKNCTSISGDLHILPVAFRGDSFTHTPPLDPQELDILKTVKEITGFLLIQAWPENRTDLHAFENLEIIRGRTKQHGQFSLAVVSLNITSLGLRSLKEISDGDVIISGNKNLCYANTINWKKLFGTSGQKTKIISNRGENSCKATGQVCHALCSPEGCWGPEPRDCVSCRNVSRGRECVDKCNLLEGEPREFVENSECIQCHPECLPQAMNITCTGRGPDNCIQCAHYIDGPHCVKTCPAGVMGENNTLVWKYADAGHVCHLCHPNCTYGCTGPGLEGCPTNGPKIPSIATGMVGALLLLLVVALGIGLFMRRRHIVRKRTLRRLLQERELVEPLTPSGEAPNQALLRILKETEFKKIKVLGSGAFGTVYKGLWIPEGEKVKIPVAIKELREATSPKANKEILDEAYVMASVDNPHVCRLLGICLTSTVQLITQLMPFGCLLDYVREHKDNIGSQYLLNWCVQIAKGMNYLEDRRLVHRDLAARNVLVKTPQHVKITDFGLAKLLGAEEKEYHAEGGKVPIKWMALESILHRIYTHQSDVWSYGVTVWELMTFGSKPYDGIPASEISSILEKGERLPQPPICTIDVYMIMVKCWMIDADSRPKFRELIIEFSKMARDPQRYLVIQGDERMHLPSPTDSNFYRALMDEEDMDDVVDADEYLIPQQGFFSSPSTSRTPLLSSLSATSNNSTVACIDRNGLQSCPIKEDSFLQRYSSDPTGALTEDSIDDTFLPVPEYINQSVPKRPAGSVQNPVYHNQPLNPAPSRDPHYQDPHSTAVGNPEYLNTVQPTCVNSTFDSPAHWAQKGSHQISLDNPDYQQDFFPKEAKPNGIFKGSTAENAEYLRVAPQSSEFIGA
EGFR [L858R/T790M], sequence (P00533 25-1210 T790M/L858R): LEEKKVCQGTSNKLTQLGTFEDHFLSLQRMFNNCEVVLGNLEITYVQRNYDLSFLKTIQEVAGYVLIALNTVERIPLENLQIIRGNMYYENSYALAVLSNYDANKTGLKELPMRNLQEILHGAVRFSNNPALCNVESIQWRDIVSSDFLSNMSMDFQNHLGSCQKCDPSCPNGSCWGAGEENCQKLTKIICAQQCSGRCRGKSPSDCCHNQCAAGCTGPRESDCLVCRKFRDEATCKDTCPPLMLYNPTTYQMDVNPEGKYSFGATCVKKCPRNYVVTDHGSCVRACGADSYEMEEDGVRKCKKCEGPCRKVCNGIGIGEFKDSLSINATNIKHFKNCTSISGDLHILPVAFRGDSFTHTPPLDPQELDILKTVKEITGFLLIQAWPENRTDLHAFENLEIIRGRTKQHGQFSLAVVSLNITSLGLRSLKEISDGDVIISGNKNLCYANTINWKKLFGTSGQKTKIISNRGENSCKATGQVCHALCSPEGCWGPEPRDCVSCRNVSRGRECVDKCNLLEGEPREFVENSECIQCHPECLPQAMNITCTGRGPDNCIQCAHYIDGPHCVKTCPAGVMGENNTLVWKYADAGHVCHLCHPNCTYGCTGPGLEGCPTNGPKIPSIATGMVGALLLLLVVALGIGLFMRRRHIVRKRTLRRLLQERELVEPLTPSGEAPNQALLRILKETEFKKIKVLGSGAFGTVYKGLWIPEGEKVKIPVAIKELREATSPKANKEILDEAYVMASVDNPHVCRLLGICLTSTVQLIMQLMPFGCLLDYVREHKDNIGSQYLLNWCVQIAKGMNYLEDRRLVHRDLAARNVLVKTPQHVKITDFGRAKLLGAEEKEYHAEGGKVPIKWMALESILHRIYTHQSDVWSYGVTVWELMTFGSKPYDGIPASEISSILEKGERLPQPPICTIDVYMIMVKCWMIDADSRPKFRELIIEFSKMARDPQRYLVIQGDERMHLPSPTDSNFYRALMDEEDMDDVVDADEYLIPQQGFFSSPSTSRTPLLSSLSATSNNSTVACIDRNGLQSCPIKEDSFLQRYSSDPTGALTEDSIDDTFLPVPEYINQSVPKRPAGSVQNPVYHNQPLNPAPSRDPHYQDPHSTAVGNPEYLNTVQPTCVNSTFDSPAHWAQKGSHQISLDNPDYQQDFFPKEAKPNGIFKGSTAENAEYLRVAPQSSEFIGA

As for `C=CC(=O)Nc1cc(Nc2nccc(-c3cc(F)c4nn(C)c(C(C)C)c4c3)n2)c(OC)cc1N(C)CCN(C)C` [Example 41, N-(2-((2-(dimethylamino)ethyl)(methyl)amino)-5-((4-(7-fluoro-3-isopropyl-2-methyl-2H-indazole-5-yl)pyrimidin-2-yl)amino)-4-methoxyphenyl)acrylamide], the IC50 is less than 1 nM against WT EGFR, less than 1 nM at EGFR [L858R/T790M], 100 to 400 nM in test [1] and less than 10 nM in test [2] (setting [3]).
As to `C=CC(=O)Nc1cc(Nc2nccc(-c3ccc4nn(C)c(C(C)C)c4c3)n2)c(OC)cc1N(C)CCN(C)C` [Example 42, N-(2-((2-(dimethylamino)ethyl)(methyl)amino)-5-((4-(3-isopropyl-2-methyl-2H-indazole-5-yl)pyrimidin-2-yl)amino)-4-methoxyphenyl)acrylamide], the IC50 was less than 1 nM against WT EGFR, less than 1 nM at EGFR [L858R/T790M], 100 to 400 nM in test [1] and less than 10 nM in test [2] (setting [3]).
Consider `C=CC(=O)Nc1cc(Nc2nccc(-c3ccc4nccn4n3)n2)c(OC)cc1N(C)CCN(C)C` [Example 43, N-(2-((2-(dimethylamino)ethyl)(methyl)amino)-5-((4-(imidazo[1,2-b]pyridazine-6-yl)pyrimidin-2-yl)amino)-4-methoxyphenyl)acrylamide], for which the IC50 on WT EGFR was 50 to 100 nM; at EGFR [L858R/T790M], 1 to 50 nM; in test [1], more than 1000 nM; in test [2] (setting [3]), 100 to 400 nM.
The corresponding values for `C=CC(=O)Nc1cc(Nc2nccc(-c3cc4c5c(c3)n(C(C)C)c(=O)n5CCC4)n2)c(OC)cc1N(C)CCN(C)C` [Example 44, N-(2-((2-(dimethylamino)ethyl)(methyl)amino)-5-((4-(1-isopropyl-2-oxo-1,2,5,6-tetrahydro-4H-imidazo[4,5,1-ij]quinolin-8-yl)pyrimidin-2-yl)amino)-4-methoxyphenyl)acrylamide] are 1 to 50 nM, less than 1 nM, 400 to 1000 nM and less than 10 nM.
On to `C=CC(=O)Nc1cc(Nc2nccc(-c3cc4c5c(c3)nc(OC)n5CCC4)n2)c(OC)cc1N(C)CCN(C)C` [Example 45, N-(2-((2-(dimethylamino)ethyl)(methyl)amino)-4-methoxy-5-((4-(2-methoxy-5,6-dihydro-4H-imidazo[4,5,1-ij]quinolin-8-yl)pyrimidin-2-yl)amino)phenyl)acrylamide], for which the IC50 at WT EGFR was 1 to 50 nM; on EGFR [L858R/T790M], less than 1 nM; in test [1] it was 400 to 1000 nM; in test [2] (setting [3]), 10 to 100 nM.
For `C=CC(=O)Nc1cc(Nc2nccc(-c3ccc4ncsc4c3)n2)c(OC)cc1N(C)CCN(C)C` [Example 46, N-(5-((4-(benzo[d]thiazol-6-yl)pyrimidin-2-yl)amino)-2-((2-(dimethylamino)ethyl)(methyl)amino)-4-methoxyphenyl)acrylamide] the same measures were 1 to 50 nM, less than 1 nM, 100 to 400 nM and 10 to 100 nM.
Consider `C=CC(=O)Nc1cc(Nc2nccc(-c3cc(F)c4nc(C)n(C(C)C)c4c3)n2)c(OCC)cc1N(C)CCN(C)C` [Example 48, N-(2-((2-(dimethylamino)ethyl)(methyl)amino)-4-ethoxy-5-((4-(4-fluoro-1-isopropyl-2-methyl-1H-benzo[d]imidazole-6-yl)pyrimidin-2-yl)amino)phenyl)acrylamide], for which the IC50 on WT EGFR was 1 to 50 nM; at EGFR [L858R/T790M] it was less than 1 nM; in test [1] it was 400 to 1000 nM; in test [2] (setting [4]), less than 10 nM.
Take `C=CC(=O)Nc1cc(Nc2nccc(-c3cc(F)c4nc(C)n(C(C)C)c4c3)n2)c(OCC(F)(F)F)cc1N(C)CCN(C)C` [Example 49, N-(2-((2-(dimethylamino)ethyl)(methyl)amino)-5-((4-(4-fluoro-1-isopropyl-2-methyl-1H-benzo[d]imidazole-6-yl)pyrimidin-2-yl)amino)-4-(2,2,2-trifluoroethoxy)phenyl)acrylamide]: the IC50 against WT EGFR is less than 1 nM; at EGFR [L858R/T790M], less than 1 nM; in test [1], 10 to 100 nM; in test [2] (setting [4]) it was less than 10 nM.
Take `[2H]C([2H])([2H])c1nc2ccc(-c3ccnc(Nc4cc(NC(=O)C=C)c(N(C)CCN(C)C)cc4OC)n3)cc2n1C(C)C` [Example 50, N-(2-((2-(dimethylamino)ethyl)(methyl)amino)-5-((4-(1-isopropyl-2-(methyl-d3)-1H-benzo[d]imidazole-6-yl)pyrimidin-2-yl)amino)-4-methoxyphenyl)acrylamide]: the IC50 on WT EGFR was 1 to 50 nM; on EGFR [L858R/T790M], 1 to 50 nM; in test [1] it was 100 to 400 nM; in test [2] (setting [3]), 10 to 100 nM.
As to `[2H]C(C)(C)n1c(C)nc2ccc(-c3ccnc(Nc4cc(NC(=O)C=C)c(N(C)CCN(C)C)cc4OC)n3)cc21` [Example 51, N-(2-((2-(dimethylamino)ethyl)(methyl)amino)-4-methoxy-5-((4-(2-methyl-1-(propyl-2-yl-2-d)-1H-benzo[d]imidazole-6-yl)pyrimidin-2-yl)amino)phenyl)acrylamide], the IC50 lay within 1 to 50 nM on WT EGFR, 1 to 50 nM at EGFR [L858R/T790M], 100 to 400 nM in test [1] and 10 to 100 nM in test [2] (setting [3]).
Turning to `[2H]C([2H])([2H])C(n1c(C)nc2ccc(-c3ccnc(Nc4cc(NC(=O)C=C)c(N(C)CCN(C)C)cc4OC)n3)cc21)C([2H])([2H])[2H]` [Example 52, N-(2-((2-(dimethylamino)ethyl)(methyl)amino)-4-methoxy-5-((4-(2-methyl-1-(propyl-2-yl-1,1,1,3,3,3-d6)-1H-benzo[d]imidazole-6-yl)pyrimidin-2-yl)amino)phenyl)acrylamide], the IC50 against WT EGFR was 1 to 50 nM; on EGFR [L858R/T790M] it was less than 1 nM; in test [1] it was 100 to 400 nM; in test [2] (setting [3]) it was less than 10 nM.
For `C=CC(=O)Nc1cc(Nc2nccc(-c3cc(F)c4nc(C)n(C(C)C)c4c3)n2)c(OC)cc1N(C)CCN(C)C` [Example 53, N-(2-((2-(dimethylamino)ethyl)(methyl)amino)-5-((4-(4-fluoro-1-isopropyl-2-methyl-1H-benzo[d]imidazole-6-yl)pyrimidin-2-yl)amino)-4-methoxyphenyl)acrylamide] the same measures were 1 to 50 nM, less than 1 nM, 400 to 1000 nM and less than 10 nM.
The corresponding values for `COc1cc(N2CCN(C)CC2)ccc1Nc1ncc(F)c(-c2cc(F)c3nc(C)n(C(C)C)c3c2)n1` [Example 55, 5-fluoro-4-(4-fluoro-1-isopropyl-2-methyl-1H-benzo[d]imidazole-6-yl)-N-(2-methoxy-4-(4-methylpiperazin-1-yl)phenyl)pyrimidin-2-amine] are 1 to 50 nM, 1 to 50 nM, 400 to 1000 nM and 400 to 1000 nM.
The corresponding values for `C=CC(=O)Nc1cc(Nc2ncc(F)c(-c3cc(F)c4nc(C)c(C(=C)C)n4c3)n2)c(OC)cc1N(C)CCN(C)C` [Example 56, N-(2-((2-(dimethylamino)ethyl)(methyl)amino)-5-((5-fluoro-4-(8-fluoro-2-methyl-3-(prop-1-en-2-yl)imidazo[1,2-a]pyridine-6-yl)pyrimidin-2-yl)amino)-4-methoxyphenyl)acrylamide] are 1 to 50 nM, 1 to 50 nM, more than 1000 nM and 10 to 100 nM.
With `C=C(C)c1c(C)nc2c(F)cc(-c3nc(Nc4ccc(N5CCN(C)CC5)cc4OC)ncc3F)cn12` [Example 57, 5-fluoro-4-(8-fluoro-2-methyl-3-(prop-1-en-2-yl)imidazo[1,2-a]pyridine-6-yl)-N-(2-methoxy-4-(4-methylpiperazin-1-yl)phenyl)pyrimidin-2-amine], the IC50 is more than 100 nM on WT EGFR, 1 to 50 nM on EGFR [L858R/T790M], more than 1000 nM in test [1] and more than 1000 nM in test [2] (setting [3]).
`COc1cc(N2CCN(C)CC2)ccc1Nc1ncc(F)c(-c2cc(F)c3nc(C)cn3c2)n1` [Example 58, 5-fluoro-4-(8-fluoro-2-methylimidazo[1,2-a]pyridine-6-yl)-N-(2-methoxy-4-(4-methylpiperazin-1-yl)phenyl)pyrimidin-2-amine]: the IC50 was more than 100 nM at WT EGFR, more than 100 nM at EGFR [L858R/T790M], more than 1000 nM in test [1] and more than 1000 nM in test [2] (setting [3]).
`COc1cc(N2CCN(C)CC2)ccc1Nc1ncc(F)c(-c2cc(F)c3nc(C)c(C(C)C)n3c2)n1` [Example 59, 5-fluoro-4-(8-fluoro-3-isopropyl-2-methylimidazo[1,2-a]pyridine-6-yl)-N-(2-methoxy-4-(4-methylpiperazin-1-yl)phenyl)pyrimidin-2-amine]: the IC50 against WT EGFR was more than 100 nM; on EGFR [L858R/T790M] it was 50 to 100 nM; in test [1], more than 1000 nM; in test [2] (setting [3]), more than 1000 nM.
For `C=CC(=O)Nc1cc(Nc2nccc(-c3cc(F)c4nc(C(F)F)n(C(C)C)c4c3)n2)c(OC)cc1N(C)CCN(C)C` [Example 60, N-(5-((4-(2-(difluoromethyl)-4-fluoro-1-isopropyl-1H-benzo[d]imidazol-6-yl)pyrimidin-2-yl)amino)-2-((2-(dimethylamino)ethyl)(methyl)amino)-4-methoxyphenyl)acrylamide], the IC50 is 1 to 50 nM at WT EGFR, less than 1 nM at EGFR [L858R/T790M], 400 to 1000 nM in test [1] and 10 to 100 nM in test [2] (setting [3]).
The corresponding values for `C=CC(=O)Nc1cc(Nc2nccc(-c3cc(F)c4nc(OC(C)C)n(C(C)C)c4c3)n2)c(OC)cc1N(C)CCN(C)C` [Example 61, N-(2-((2-(dimethylamino)ethyl)(methyl)amino)-5-((4-(4-fluoro-2-isopropoxy-1-isopropyl-1H-benzo[d]imidazol-6-yl)pyrimidin-2-yl)amino)-4-methoxyphenyl)acrylamide] are 1 to 50 nM, 1 to 50 nM, 100 to 400 nM and 10 to 100 nM.
